Assay results taken from patent publication US8648111B2, “N1-2-thiophene-2-ylethyl-N2-substituted biguanide derivate, preparation method thereof, and pharmaceutical composition containing the same as active ingredients” (Hanall Biopharma Co., Ltd., priority 2008, dated 2014).
Several values for one entry are separate records, joined by “and”; a condition that tells them apart may be missing. Identical values can stand only once. Like-named read-outs stand apart in the source and are kept apart here.

Tests used:
Format in all cases: cell-based
HepG2 cells [1] = assay: Measurement of cholesterol synthesis inhibitory ability (cholesterol content in cell lysates, Amplex red)
Procedure: (§1) 2 mM metformin was used as a comparative compound for each of the plates (control group).
A cholesterol synthesis inhibitory ability, which is an important function of AMPK (AMP-activated protein kinase), was measured using HepG2 cells (ATCC: American Type Culture Collection) as a hepatic cell model according to the following procedure.
The hepatic cell model HepG2 cells were cultured in 1% serum-containing media (DMEM (Gibco), FBS (Gibco)) for 24 hours, and then treated with 100 μM or 500 μM of each of the compounds prepared in Examples for 24 hours. Then, the cells were disrupted with a lysis solution (0.1 M potassium phosphate, pH 7.4, 0.05 M NaCl, 5 mM cholic acid, 0.1% Triton X-100 (Sigma)). To the disrupted cells was added the same volume of a reaction solution (2 U/mL of a cholesterol oxidizing agent, 2 U/mL of a peroxidase, 0.2 U/mL of a cholesterol esterase, and 300 μM of Amplex red as a fluorescent factor (Molecular Probe)), which was allowed to react at 37° C. for 30 minutes. After completion of the reaction, the content of cholesterol formed in the cell lysates was measured at a wavelength of 560/590 nm (ex/em) using a fluorescence microscope.
A lower measurement value means an increased cholesterol synthesis inhibitory ability.

HepG2 cells [2] = assay: Measurement of triglyceride (triglyceride content in cell lysates, Amplex red)
Procedure: as §1
HepG2 cells (ATCC: American Type Culture Collection) were cultured in 1% serum-containing media (DMEM (Gibco), FBS (Gibco)) for 24 hours, and then treated with 100 μM or 500 μM of each of the compounds prepared in Examples for 24 hours. Then, the cells were disrupted with a lysis solution (0.1 M potassium phosphate, pH 7.4, 0.05 M NaCl, 5 mM cholic acid, 0.1% Triton X-100). […] After completion of the reaction, the content of triglyceride formed in the cell lysates was measured at a wavelength of 560/590 nm (ex/em) using a fluorescence microscope.
A lower measurement value means an increased triglyceride synthesis inhibitory ability.

HepG2 cells [3] = assay: Measurement of gluconeogenesis inhibitory ability (14C-lactate, glucose formed in cells)
Procedure: as §1
HepG2 cells (ATCC: American Type Culture Collection) were cultured in 10% serum-containing high glucose media, transferred to no serum-containing low glucose media (DMEM (Gibco), FBS (Gibco)), and then treated with 100 μM of each of the compounds for 24 hours. Then, the cells were treated with 0.5 μCi ^14C-lactate (Amersham Pharmacia) and 10 mM L-lactate (Sigma), and cultured for 4 hours. After cultivation, the media were removed therefrom, and the cells were washed with PBS, treated with 0.1N NaOH and kept at room temperature for 1 hour. Then, the cells were neutralized with 1N HCl, and the content of glucose formed in the cells was measured with a liquid scintillation counter.
A lower measurement value means an increased gluconeogenesis inhibitory ability.

C2C12 cells = assay: Measurement of glucose absorption ability (3H-deoxy-glucose uptake with insulin); details: for Glucose absorption (100 uM) Aver.: 100 uM compound with 1 μM insulin, 24 hours, differentiated C2C12, higher value = stronger, more than 200% counts as glucose absorption ability
Procedure: as §1
C2C12 cells (ATCC: American Type Culture Collection), a muscle cell model, were induced to differentiate into muscle cells in 2% bovine fetal serum-containing media (DMEM (Gibco), FBS (Gibco)) for 6 days. The C2C12 cells which differentiated into muscle cells were transferred to serum-free low glucose media (DMEM (Gibco), FBS (Gibco)), treated with 100 μM of each of the compounds, and then cultured with 1 μM of insulin for 24 hours. After cultivation, the cells were treated with 1 μCi ^3H-deoxy-glucose (Amersham Pharmacia) and 10 μM deoxy-glucose (Sigma) at 37° C. for 15 minutes. The media were removed therefrom, and the cells were washed twice with PBS (phosphate buffered saline). The washed cells were treated with 0.1N NaOH and neutralized with 1N HCl. The content of glucose absorbed into the cells was measured with a liquid scintillation counter.
A higher measurement value means a stronger ability to reduce insulin resistance.

[4] = 100 uM compound, 24 hours, HepG2, lower value = stronger cholesterol synthesis inhibition
[5] = 500 uM compound, 24 hours, HepG2, lower value = stronger cholesterol synthesis inhibition
[6] = 100 uM compound, 24 hours, HepG2, lower value = stronger triglyceride synthesis inhibition
[7] = 500 uM compound, 24 hours, HepG2, lower value = stronger triglyceride synthesis inhibition
[8] = 100 uM compound, 24 hours, HepG2, lower value = stronger gluconeogenesis inhibition
[9] = 100 uM compound, 24 hours, HepG2, lower value = stronger cholesterol synthesis inhibition, hydrochloride
[10] = 500 uM compound, 24 hours, HepG2, lower value = stronger cholesterol synthesis inhibition, hydrochloride
[11] = 100 uM compound, 24 hours, HepG2, lower value = stronger triglyceride synthesis inhibition, hydrochloride
[12] = 500 uM compound, 24 hours, HepG2, lower value = stronger triglyceride synthesis inhibition, hydrochloride
[13] = 100 uM compound, 24 hours, HepG2, lower value = stronger gluconeogenesis inhibition, hydrochloride, 100 µM
[14] = 100 μM compound vs 2 mM metformin, by comparison of used amounts
[15] = Metformin 2 mM, control group of each plate, HepG2

| Compound | Cholesterol (100 uM) Aver. (HepG2 cells [1]; [4]) | Cholesterol (500 uM) Aver. (HepG2 cells [1]; [5]) | Triglyceride (100 uM) Aver. (HepG2 cells [2]; [6]) | Triglyceride (500 uM) Aver. (HepG2 cells [2]; [7]) | Gluconeogenesis inhibition (100 uM) Aver. (HepG2 cells [3]; [8]) | Glucose absorption (100 uM) Aver. (C2C12 cells) [%] | also measured |
| --- | --- | --- | --- | --- | --- | --- | --- |
| Cc1ccc(N=C(NCCc2cccs2)NC(=N)N)cc1.Cl [Example 19, N1-2-(thiophen-2-ylethyl)-N2-(4-methylphenyl) biguanide hydrochloride] | 52.9 | 29.6 | 67.7 | 46.4 | 74.32 | 89.16 | – |
| CC(C)(C)c1ccc(N=C(NCCc2cccs2)NC(=N)N)cc1.Cl [Example 28, N1-2-(thiophen-2-ylethyl)-N2-(4-t-butylphenyl) biguanide hydrochloride] | 27.49 | 26.60 | 15.55 | 15.21 | 2.57 | 4.29 | – |
| CCCCN=C(NCCc1cccs1)NC(=N)N.Cl [Example 25, N1-2-(thiophen-2-ylethyl)-N2-butyl biguanide hydrochloride] | – | – | – | – | – | – | Cholesterol (100 uM) Aver. (HepG2 cells [1]; [9]): 32.66; Cholesterol (500 uM) Aver. (HepG2 cells [1]; [10]): 19.87; Triglyceride (100 uM) Aver. (HepG2 cells [2]; [11]): 19.21; Triglyceride (500 uM) Aver. (HepG2 cells [2]; [12]): 17.02; Gluconeogenesis inhibition (100 uM) Aver. (HepG2 cells [3]; [13]): 0.00; Glucose absorption (100 uM) Aver. (C2C12 cells; hydrochloride): 2.76% |
| N1-2-(5-ethylthiophen-2-ylethyl)-N2-methyl biguanide hydrochloride [Example 46] | 84.52 | 71.64 | 90.82 | 86.07 | – | 353.21 | Gluconeogenesis inhibition (100 uM) Aver. (HepG2 cells [3]): 23.65 |
| Cc1ccc(CN=C(NCCc2cccs2)NC(=N)N)cc1.Cl [Example 40, N1-2-(thiophen-2-ylethyl)-N2-(4-methylbenzyl) biguanide hydrochloride] | – | – | – | – | – | 75.38 | Cholesterol (100 uM) Aver. (HepG2 cells [1]): 72.58; Cholesterol (500 uM) Aver. (HepG2 cells [1]): 57.11; Triglyceride (100 uM) Aver. (HepG2 cells [2]): 84.73; Triglyceride (500 uM) Aver. (HepG2 cells [2]): 60.37; Gluconeogenesis inhibition (100 uM) Aver. (HepG2 cells [3]): 81.23 |
| N1-2-(thiophen-2-ylethyl)-N2-t-butyl biguanide hydrochloride [Example 7] | 42.51 | 2.79 | 74.43 | 16.49 | 39.98 | 21.59 | – |
| Cl.N=C(N)NC(=NC1CCCCCC1)NCCc1cccs1 [Example 22, N1-2-(thiophen-2-ylethyl)-N2-cycloheptyl biguanide hydrochloride] | 69.8 | 44.4 | 77.8 | 78.9 | 96.63 | 173.8 | – |
| CCN=C(NCCc1cccs1)NC(=N)N.Cl [Example 1, N1-(thiophen-2-ylethyl)-N2-ethyl biguanide hydrochloride] | 45.18 | 30.51 | 56.70 | 54.57 | – | 322.7 | effect in inhibiting gluconeogenesis relative to control group (HepG2 cells [3]; [14]): at least 20 times; activity at 100 µM (HepG2 cells [3]; Homo sapiens, HepG2, 24 h, 100 uM compound, 24 hours, HepG2, lower value = stronger gluconeogenesis inhibition, read-out: Gluconeogenesis inhibition (100 uM) Aver.): 48.9%; glucose absorption effect relative to control group (C2C12 cells; [14]): about 20 times |
| CCCCCCc1ccc(N=C(NCCc2cccs2)NC(=N)N)cc1.Cl [Example 29, N1-2-(thiophen-2-ylethyl)-N2-(4-hexylphenyl) biguanide hydrochloride] | 30.10 | 119.39 | 8.04 | 42.57 | 1.26 | 3.96 | – |
| CC(C)N=C(NCCc1cccs1)NC(=N)N.Cl [Example 41, N1-2-(thiophen-2-ylethyl)-N2-isopropyl biguanide hydrochloride] | 87.73 | 75.54 | 93.91 | 81.62 | 97.81 | 150.65 | – |
| CC(C)(C)CC(C)(C)N=C(NCCc1cccs1)NC(=N)N.Cl [Example 2, N1-2-(thiophen-2-ylethyl)-N2-t-octyl biguanide hydrochloride] | 63.63 | 55.38 | 29.21 | −1.92 | 68.28 | 10.46 | – |
| COc1cc(N=C(NCCc2cccs2)NC(=N)N)cc(OC)c1OC.Cl [Example 17, N1-2-(thiophen-2-ylethyl)-N2-(3,4,5-trimethoxy)phenyl biguanide hydrochloride] | 87.2 | 57.5 | 86.2 | 79.4 | 95.56 | 165.2 | – |
| Cl.N=C(N)NC(=Nc1ccccc1)NCCc1cccs1 [Example 20, N1-2-(thiophen-2-ylethyl)-N2-phenyl biguanide hydrochloride] | 45.7 | 18.3 | 67.5 | 57.6 | 87.36 | 125.4 | – |
| COc1ccc(OC)c(N=C(NCCc2cccs2)NC(=N)N)c1.Cl [Example 16, N1-2-(thiophen-2-ylethyl)-N2-(2,5-dimethoxy)phenyl biguanide hydrochloride] | – | – | – | – | – | – | Cholesterol (100 uM) Aver. (HepG2 cells [1]; [9]): 85.0; Cholesterol (500 uM) Aver. (HepG2 cells [1]; [10]): 58.5; Triglyceride (100 uM) Aver. (HepG2 cells [2]; [11]): 73.8; Triglyceride (500 uM) Aver. (HepG2 cells [2]; [12]): 51.3; Gluconeogenesis inhibition (100 uM) Aver. (HepG2 cells [3]; [13]): 68.89; Glucose absorption (100 uM) Aver. (C2C12 cells; hydrochloride): 147.3% |
| N1-2-(thiophen-2-ylethyl)-N2-cyclohexyl biguanide hydrochloride [Example 6] | – | – | – | – | – | 56.15 | Cholesterol (100 uM) Aver. (HepG2 cells [1]): 30.58; Cholesterol (500 uM) Aver. (HepG2 cells [1]): 0.51; Triglyceride (100 uM) Aver. (HepG2 cells [2]): 51.00; Triglyceride (500 uM) Aver. (HepG2 cells [2]): −1.71; Gluconeogenesis inhibition (100 uM) Aver. (HepG2 cells [3]): 33.59 |
| CN(C)C(=N)N=C(N)N [Metformin, reference compound] | – | – | – | – | – | – | Cholesterol Aver. (HepG2 cells [1]; [15]): 65.31 and 74.50 and 85.91 and 70.69 and 73.31; Triglyceride Aver. (HepG2 cells [2]; [15]): 81.14 and 69.58 and 73.61 and 70.05 and 74.57; Gluconeogenesis inhibition Aver. (HepG2 cells [3]; [15]): 39.79 and 59.14 and 53.09 and 78.33 and 64.50 |
